These results are taken from ChEMBL document CHEMBL2331359, “Ceramicines from Chisocheton ceramicus as lipid-droplets accumulation inhibitors” (Bioorg Med Chem Lett, 2013).

Series [1] in a line: Cytotoxicity against mouse MC3T3-G2/PA6 cells assessed as cell viability by MTT assay. Type of series: cell-based.
The nature of series [2]: Antiadipogenic activity in mouse MC3T3-G2/PA6 cells assessed as inhibition of lipid droplet accumulation after 6 days. The class given is functional, cell-based. Conditions: MC3T3-G2/PA6, 144 h.
A short description of series [3]: Selectivity index, ratio of CC50 for mouse MC3T3-G2/PA6 cells to IC50 for inhibition of lipid droplet accumulation in mouse MC3T3-G2/PA6 cells. The class given is functional.

Bounds are passed on as bounds.

Turning to `C[C@@]12CC[C@@H]3[C@@]4(C)C(=O)C=C[C@@]5(C)CO[C@@H]([C@@H](O)[C@@]3(C)[C@@H]1C(=O)C[C@H]2c1ccoc1)[C@H]45` [CERAMICINE J], the CC50 in series [1] is > 50 µM. The IC50 in series [2] is > 50 µM.
For `C[C@@]1(C=O)C=CC(=O)[C@]2(C)[C@H]3CC[C@]4(C)C(=CC[C@H]4c4ccoc4)[C@]3(C)[C@H](O)[C@H](O)[C@@H]12` [CERAMICINE F], the “Ratio CC50/IC50” value in series [3] is recorded as 1.1. Also, the CC50 in series [1] came to 25 µM. Also, the half-inhibitory concentration (IC50) in series [2] was determined as 22.4 µM.
The matching figures for `C[C@]12C3=CC[C@@H](c4ccoc4)[C@]3(C)CC[C@@H]1[C@@]1(C)C(=O)C=C[C@@]3(C)CO[C@@H]([C@H]2OC(=O)C(F)(F)F)[C@H]13`: 1.9, 13.7 µM and 7.3 µM.
For the compound `C/C=C(\C)C(=O)O[C@H]1C[C@H]2[C@](C)(C3=CC[C@@H](c4ccoc4)[C@@]31C)[C@H](O)[C@@H]1OC[C@]3(C)C=CC(=O)[C@@]2(C)[C@@H]13` [CERAMICINE H], in series [1], the CC50 is > 50 µM. In addition, the IC50 in series [2] was > 50 µM.
For `C[C@]12CCC(=O)[C@]3(C)[C@H]4CC[C@]5(C)C(=CCC5C5CCOC5)[C@]4(C)[C@H](O)[C@H](OC1)[C@@H]23` (stereo partly specified), the half-maximal cytotoxic concentration (CC50) in series [1] is > 50 µM. For the same compound, in series [2], the 50% inhibitory concentration (IC50) was > 50 µM.
Regarding `CC(=O)O[C@H]1C=CC(=O)[C@@]2(C)[C@H]1[C@@H](O)[C@@H](O)[C@@]1(C)C3=CC[C@@H](c4ccoc4)[C@]3(C)CC[C@H]21` [CERAMICINE K], the CC50 in series [1] is > 50 µM. The concentration for half-maximal inhibition (IC50) in series [2] is > 50 µM.
For the compound `CCO[C@@H]1[C@@H]2OC[C@]3(C)C=CC(=O)[C@](C)([C@H]4CC[C@]5(C)C(=CC[C@H]5c5ccoc5)[C@@]41C)[C@@H]23`, in series [3], the “Ratio CC50/IC50” value was 2.7. Further, the CC50 in series [1] turned out to be 20.6 µM. The IC50 in series [2] stood at 7.7 µM.
For the compound `C[C@@]12C(=O)C=C[C@@]3(C)COC(=C[C@@]4(C)C5=CC[C@@H](c6ccoc6)[C@]5(C)CC[C@H]14)[C@H]23`, in series [3], the “Ratio CC50/IC50” value is listed as >1.7. Further, the CC50 in series [1] was > 50 µM. The 50% inhibitory concentration (IC50) in series [2] was 29.5 µM.
With `COC(=O)[C@]1(C)C=CC(=O)[C@]2(C)[C@H]3CC[C@]4(C)C(=CC[C@H]4c4ccoc4)[C@]3(C)[C@H](O)[C@H](O)[C@H]21` [CERAMICINE G], the “Ratio CC50/IC50” value in series [3] was found to be 1.9. In addition, in series [1], the CC50 was 72.9 µM. Besides, the half-maximal inhibitory concentration (IC50) in series [2] was 38.4 µM.
`CC(=O)O[C@H]1C[C@H]2[C@](C)(C3=CC[C@@H](c4ccoc4)[C@@]31C)[C@H](O)[C@@H]1OC[C@]3(C)C=CC(=O)[C@@]2(C)[C@@H]13` [CERAMICINE I]: in series [3], the “Ratio CC50/IC50” value is recorded as >1.2. The CC50 in series [1] was > 50 µM. In series [2], the 50% inhibitory concentration (IC50) amounted to 41 µM.
With `C[C@]12C3=CC[C@@H](C4=CCOC4=O)[C@]3(C)CC[C@@H]1[C@@]1(C)C(=O)C=C[C@@]3(C)CO[C@@H]([C@H]2O)[C@H]13` [CERAMICINES D], the cytotoxic concentration (CC50) in series [1] was > 50 µM. The 50% inhibitory concentration (IC50) in series [2] is > 50 µM.
Turning to `C[C@@]12CCC(O)[C@@]3(C)[C@H]1[C@@H](OC2)[C@@H](O)[C@@]1(C)C2=CC[C@@H](c4ccoc4)[C@]2(C)CC[C@@H]13` (stereo partly specified), in series [3], the “Ratio CC50/IC50” value was >2.4. Also, the CC50 in series [1] is > 50 µM. Further, in series [2], the IC50 came to 20.8 µM.
`C=C(C)C(=O)O[C@H]1C[C@H]2[C@](C)(C3=CC[C@@H](c4ccoc4)[C@@]31C)[C@H](O)[C@@H]1OC[C@]3(C)C=CC(=O)[C@@]2(C)[C@@H]13` [CERAMICINES C]: in series [3], the “Ratio CC50/IC50” value is reported as 1.2. In addition, the 50% cytotoxic concentration (CC50) in series [1] was 21.9 µM. Also, the 50% inhibitory concentration (IC50) in series [2] is 19.1 µM.
The like results for `C[C@]12C3=CC[C@@H](c4ccoc4)[C@]3(C)CC[C@@H]1[C@@]1(C)C(=O)C=C[C@@]3(C)CO[C@@H]([C@H]2OC(=O)c2ccncc2)[C@H]13` were, in that order, 0.9, 17.2 µM and 18.7 µM.
For `C[C@]12C3=CC[C@@H](c4ccoc4)[C@]3(C)CC[C@@H]1[C@@]1(C)C(=O)C=C[C@@](C)(O)[C@@H]1[C@@H](O)[C@H]2O` [CERAMICINE L], the CC50 in series [1] is > 50 µM. Moreover, the IC50 in series [2] was > 50 µM.
Turning to `COCO[C@@H]1[C@@H]2OC[C@]3(C)C=CC(=O)[C@](C)([C@H]4CC[C@]5(C)C(=CC[C@H]5c5ccoc5)[C@@]41C)[C@@H]23`, the “Ratio CC50/IC50” value in series [3] stood at 2.3. Further, the CC50 in series [1] turned out to be 19.7 µM. Further, the 50% inhibitory concentration (IC50) in series [2] was 8.5 µM.
With `CC(=O)O[C@H]1[C@@H](O)[C@@]2(C)C3=CC[C@@H](c4ccoc4)[C@]3(C)CC[C@@H]2[C@@]2(C)C(=O)[C@H]3O[C@H]3[C@]3(CO3)[C@H]12` [CERAMICINE E], the “Ratio CC50/IC50” value in series [3] is recorded as 1.1. Further, the CC50 in series [1] came out at 48.4 µM. Besides, the IC50 in series [2] stood at 44.1 µM.
In the case of `C[C@]12C3=CC[C@@H](c4ccoc4)[C@]3(C)CC[C@@H]1[C@@]1(C)C(=O)C=C[C@@]3(C)CO[C@@H]([C@H]2OC(=O)c2ccccc2)[C@H]13`, the CC50 in series [1] is > 50 µM. Further, in series [2], the IC50 is > 50 µM.
As to `CC(=O)O[C@@H]1[C@H]2[C@@H](O)C=CC(=O)[C@]2(C)[C@H]2CC[C@]3(C)C(=CC[C@H]3c3ccoc3)[C@]2(C)[C@@H]1O` [CERAMICINES A], the “Ratio CC50/IC50” value in series [3] was found to be 5. Moreover, in series [1], the CC50 was determined as 30.7 µM. In addition, the half-inhibitory concentration (IC50) in series [2] was 6.2 µM.
The like results for `C[C@]12C3=CC[C@@H](c4ccoc4)[C@]3(C)CC[C@@H]1[C@@]1(C)C(=O)C=C[C@@]3(C)CO[C@@H]([C@H]2O)[C@H]13` [CERAMICINES B] were, in that order, 8.8, 15.9 µM and 1.8 µM.
For `CC(=O)O[C@@H]1[C@@H]2OC[C@]3(C)C=CC(=O)[C@](C)([C@H]4CC[C@]5(C)C(=CC[C@H]5c5ccoc5)[C@@]41C)[C@@H]23`, the “Ratio CC50/IC50” value in series [3] is on record as 3. The CC50 in series [1] came out at 26.2 µM. In addition, the IC50 in series [2] worked out at 8.8 µM.
